Assay in all cases: Example B2 herbicidal action, post-emergence, pots in glasshouse, evaluated after 13 days (10=total damage to plant; 0=no damage to plant)
Holding throughout (format): in vivo
Conditions in all cases: rate 1000 g/ha

One experiment concerns Setaria faberi. The protocol:
(§1) Seeds of a variety of test species were sown in standard soil in pots. After 8 days cultivation (post-emergence) under controlled conditions in a glasshouse (at 24/16° C., day/night; 14 hours light; 65% humidity), the plants were sprayed with an aqueous spray solution derived from the formulation of the technical active ingredient in acetone/water (50:50) solution containing 0.5% Tween 20 (polyoxyethelyene sorbitan monolaurate, CAS RN 9005-64-5). The test plants were then grown in a glasshouse under controlled conditions in a glasshouse (at 24/16° C., day/night; 14 hours light; 65% humidity) and watered twice daily. After 13 days, the test was evaluated (10=total damage to plant; 0=no damage to plant).

The next experiment has as its system Ipomea hederaceae. Here is the method:
as §1

Another experiment concerns Amaranthus retroflexus. The protocol: as §1
A further experiment concerns Echinochloa crus-galli. Here is the method:
as §1

For another experiment, the system named is Solanum nigrum. The protocol:
as §1

As for `CC(C)C(=O)Oc1c(-c2c(F)ccc(F)c2Cl)c(=O)n(CC(F)(F)F)c2nccnc12` [C10], the “SETFA damage score (10=total damage to plant; 0=no damage to plant)” value in the experiment with Setaria faberi worked out at 6. Further, the “IPOHE damage score (10=total damage to plant; 0=no damage to plant)” value in the experiment with Ipomea hederaceae was 10. Moreover, the “AMARE damage score (10=total damage to plant; 0=no damage to plant)” value in the experiment with Amaranthus retroflexus stood at 10. Also, the “ECHCG damage score (10=total damage to plant; 0=no damage to plant)” value in the experiment with Echinochloa crus-galli is 3. In the experiment on Solanum nigrum, the “SOLNI damage score (10=total damage to plant; 0=no damage to plant)” value is 10.

For `O=C1c2nccnc2N(CC=C(Cl)Cl)C(=O)C1c1c(F)ccc(F)c1Cl` (centres unmarked) [D3], in the experiment with Setaria faberi, the “SETFA damage score (10=total damage to plant; 0=no damage to plant)” value amounted to 3. In addition, the “IPOHE damage score (10=total damage to plant; 0=no damage to plant)” value with Ipomea hederaceae stood at 7. The “AMARE damage score (10=total damage to plant; 0=no damage to plant)” value in the experiment on Amaranthus retroflexus was 9. In addition, the “ECHCG damage score (10=total damage to plant; 0=no damage to plant)” value in the experiment with Echinochloa crus-galli was determined as 0. Further, in the experiment on Solanum nigrum, the “SOLNI damage score (10=total damage to plant; 0=no damage to plant)” value is listed as 7.

For the compound `CC(C)C(=O)Oc1c(-c2c(Cl)cccc2C(F)(F)F)c(=O)n(CC(F)F)c2nccnc12` [A41], the “SETFA damage score (10=total damage to plant; 0=no damage to plant)” value with Setaria faberi is on record as 9. The “IPOHE damage score (10=total damage to plant; 0=no damage to plant)” value in the experiment on Ipomea hederaceae was determined as 9. The “AMARE damage score (10=total damage to plant; 0=no damage to plant)” value in the experiment with Amaranthus retroflexus is given as 10. Also, the “ECHCG damage score (10=total damage to plant; 0=no damage to plant)” value in the experiment on Echinochloa crus-galli was determined as 8. The “SOLNI damage score (10=total damage to plant; 0=no damage to plant)” value in the experiment on Solanum nigrum is 10.

Turning to `O=c1c(-c2cc(Cl)ccc2C(F)(F)F)c(O)c2nccnc2n1CC(F)F` [B10], in the experiment on Setaria faberi, the “SETFA damage score (10=total damage to plant; 0=no damage to plant)” value turned out to be 9. Also, the “IPOHE damage score (10=total damage to plant; 0=no damage to plant)” value with Ipomea hederaceae turned out to be 10. In addition, the “AMARE damage score (10=total damage to plant; 0=no damage to plant)” value in the experiment on Amaranthus retroflexus is listed as 10. Besides, the “ECHCG damage score (10=total damage to plant; 0=no damage to plant)” value with Echinochloa crus-galli was 9. Moreover, in the experiment on Solanum nigrum, the “SOLNI damage score (10=total damage to plant; 0=no damage to plant)” value was found to be 10.

Turning to `CCc1cc(C)cc(CC)c1-c1c(OC(=O)C(C)C)c2nccnc2n(CC(F)F)c1=O` [A12], the “SETFA damage score (10=total damage to plant; 0=no damage to plant)” value in the experiment with Setaria faberi is recorded as 10. Further, the “IPOHE damage score (10=total damage to plant; 0=no damage to plant)” value in the experiment with Ipomea hederaceae was found to be 9. In addition, the “AMARE damage score (10=total damage to plant; 0=no damage to plant)” value in the experiment on Amaranthus retroflexus is reported as 3. In addition, in the experiment with Echinochloa crus-galli, the “ECHCG damage score (10=total damage to plant; 0=no damage to plant)” value came to 9. The “SOLNI damage score (10=total damage to plant; 0=no damage to plant)” value in the experiment with Solanum nigrum was determined as 10.

Take `CCc1cc(C)cc(CC)c1-c1c(O)c2nccnc2n(CC(F)F)c1=O` [B4]: the “SETFA damage score (10=total damage to plant; 0=no damage to plant)” value with Setaria faberi came out at 9. For the same compound, in the experiment with Ipomea hederaceae, the “IPOHE damage score (10=total damage to plant; 0=no damage to plant)” value is recorded as 10. In addition, the “AMARE damage score (10=total damage to plant; 0=no damage to plant)” value with Amaranthus retroflexus was found to be 7. Also, the “ECHCG damage score (10=total damage to plant; 0=no damage to plant)” value in the experiment with Echinochloa crus-galli amounted to 8. Besides, the “SOLNI damage score (10=total damage to plant; 0=no damage to plant)” value in the experiment with Solanum nigrum was 10.

`O=c1c(-c2c(Cl)ccc(Cl)c2Cl)c(O)c2nccnc2n1CC(F)F` [B11, 5-(2,2-difluoro-ethyl)-8-hydroxy-7-(2,3,6-trichloro-phenyl)-5H-pyrido[2,3-b]pyrazin-6-one]: in the experiment on Setaria faberi, the “SETFA damage score (10=total damage to plant; 0=no damage to plant)” value came to 9. Moreover, the “IPOHE damage score (10=total damage to plant; 0=no damage to plant)” value in the experiment on Ipomea hederaceae was found to be 10. In addition, in the experiment on Amaranthus retroflexus, the “AMARE damage score (10=total damage to plant; 0=no damage to plant)” value is reported as 10. In addition, the “ECHCG damage score (10=total damage to plant; 0=no damage to plant)” value with Echinochloa crus-galli amounted to 8. Moreover, the “SOLNI damage score (10=total damage to plant; 0=no damage to plant)” value with Solanum nigrum was 10.

On to `CC(C)(C)C(=O)Oc1c(-c2c(F)ccc(F)c2Cl)c(=O)n(CCC=C(F)F)c2nccnc12` [C11], for which the “SETFA damage score (10=total damage to plant; 0=no damage to plant)” value in the experiment on Setaria faberi stood at 0. Further, the “IPOHE damage score (10=total damage to plant; 0=no damage to plant)” value in the experiment with Ipomea hederaceae is 0. In the experiment with Amaranthus retroflexus, the “AMARE damage score (10=total damage to plant; 0=no damage to plant)” value is 5. In addition, the “ECHCG damage score (10=total damage to plant; 0=no damage to plant)” value with Echinochloa crus-galli worked out at 0. In the experiment on Solanum nigrum, the “SOLNI damage score (10=total damage to plant; 0=no damage to plant)” value is reported as 2.

As for `CC(C)(C)C(=O)Oc1c(-c2c(Cl)cc(C(F)(F)F)cc2Cl)c(=O)n(CC(F)F)c2nccnc12` [A9], the “SETFA damage score (10=total damage to plant; 0=no damage to plant)” value in the experiment on Setaria faberi is reported as 9. Moreover, the “AMARE damage score (10=total damage to plant; 0=no damage to plant)” value in the experiment on Amaranthus retroflexus is listed as 10. In addition, the “ECHCG damage score (10=total damage to plant; 0=no damage to plant)” value in the experiment with Echinochloa crus-galli stood at 7. The “SOLNI damage score (10=total damage to plant; 0=no damage to plant)” value in the experiment with Solanum nigrum was 10.

(Values after patent US8217055B2, “Pyrido-pyrazine derivatives useful as herbicidal compounds” (Syngenta Crop Protection LLC, priority 2006, dated 2012).)
